Assay results: patent US5998362A, “Conjugates useful in the treatment of prostate cancer” (priority 1997, dated 1999)
Where a SMILES comes first, the peptide text is derived from it. [ ]: non-standard residue; d: D form. The star is where a group is joined. Doxorubicin(3'-N) = COc1cccc2c1C(=O)c1c(O)c3c(c(O)c1C2=O)C[C@@](O)(C(=O)CO)C[C@@H]3O[C@H]1C[C@H](N*)[C@H](O)[C@H](C)O1; X2 = COCCOCCOCCOCCOCCOCCOCCOCCOCCOCCOCCOCCOCCOCCOCCOCCOCC(=O)*; X5 = COCCOCCOCCOCCOCCOCCOCCOCCOCCOCCOCCOCCOCCOCCOCCOCC(=O)*; X6 = COCCOCCOCCOCCOCCOCCOCCOCCOCCOCCOCCOCCOCCOCCOCC(=O)*; Decanoyl(3,6,9-trioxa) = COCCOCCOCC(=O)*; Glyceroyl(2R) = O=C([C@H](O)CO)*; X1 = COCCOCCOCCOCCOCCOCCOCC(=O)*; hArg = N=C(N)NCCCC[C@H](N)C(=O)O; 3Pal = N[C@@H](Cc1cccnc1)C(=O)O; X4 = O=C([C@H](O)[C@@H](O)CO)*; Chg = N[C@H](C(=O)O)C1CCCCC1; Nle = CCCC[C@H](N)C(=O)O; Glycolyl = O=C(CO)*

Legend:
[1] = test system: DuPRO cells; test: In vitro cytotoxicity of peptidyl derivatives of doxorubicin, Alamar Blue assay, DuPRO; format: cell-based; details: 3 days incubation, read-out: DuPRO cell kill EC 50 (μM), value in parentheses
Experimental: The cytotoxicities of the cleaveable oligopeptide-doxorubicin conjugates, prepared as described in Examples 3-6, against a line of cells which is known to be killed by unmodified doxorubicin was assessed with an Alamar Blue assay. Specifically, cell cultures of LNCap prostate tumor cells or DuPRO cells in 96 well plates was diluted with medium containing various concentrations of a given conjugate (final plate well volume of 200 μl). The cells were incubated for 3 days at 37° C., 20 μl of Alamar Blue is added to the assay well. The cells were further incubated and the assay plates were read on a EL-310 ELISA reader at the dual wavelengths of 570 and 600 nm at 4 and 7 hours after addition of Alamar Blue. Relative percentage viability at the various concentration of conjugate tested was then calculated versus control (no conjugate) cultures. If no salt is indicated, the free conjugate was tested.

[2] = target: T1, free PSA (Homo sapiens, UniProt P07288); test: Recognition of oligopeptide-doxorubicin conjugates by free PSA (time to 50% cleavage, HPLC); format: biochemical; set-up: required for 50% cleavage of the noted oligopeptides with enzymatically active free PSA; details: for Substrate cleavage by York PSA at 4 HOUR: Table 3, DOX conjugates
Experimental: If no salt is indicated for the conjugate, the free conjugate was tested.

[3] = target: T1, free PSA; test: Recognition of oligopeptides by free PSA (time to 50% cleavage, HPLC)
Experimental: The oligopeptides prepared as described in Example 1 were individually dissolved in PSA digestion buffer (12 mM tris(hydroxymethyl)-aminomethane pH8.0, 25 mM NaCl, 0.5 mM CaCl2) and the solution added to PSA at a molar ration of 100 to 1. The reaction is quenched after various reaction times by the addition of trifluoroacetic acid (TFA) to a final 1% (volume/volume). The quenched reaction was analyzed by HPLC on a reversed-phase C18 column using an aqueous 0.1% TFA/acetonitrile gradient. […] Oligopeptides containing free amine moieties (ie. comprising hArg, Orn, Lys and or 3PAL) were tested as TFA salts. All other oligopeptides were tested as neutral compounds.

[4] = Table 2, oligopeptides, PSA digestion buffer 12 mM Tris pH8.0, 25 mM NaCl, 0.5 mM CaCl2, substrate:PSA 100 to 1

T1 sequence (P07288 25-261): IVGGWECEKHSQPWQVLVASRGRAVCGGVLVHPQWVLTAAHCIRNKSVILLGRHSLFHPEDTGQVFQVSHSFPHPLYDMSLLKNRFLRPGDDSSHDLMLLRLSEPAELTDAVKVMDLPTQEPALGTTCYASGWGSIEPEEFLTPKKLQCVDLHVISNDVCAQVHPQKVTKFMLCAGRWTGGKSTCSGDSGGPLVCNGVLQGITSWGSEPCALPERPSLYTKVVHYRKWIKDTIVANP

Compound: COc1cccc2c1C(=O)c1c(O)c3c(c(O)c1C2=O)C[C@@](O)(C(=O)CO)C[C@@H]3O[C@H]1C[C@H](NC(=O)[C@H](CC(C)C)NC(=O)[C@H](CO)NC(=O)[C@H](CO)NC(=O)[C@H](CO)NC(=O)[C@H](CCC(N)=O)NC(=O)[C@H](Cc2ccc(O)cc2)NC(=O)[C@H](CO)NC(=O)CO)[C@H](O)[C@H](C)O1 [2-hydroxyacetyl-SYQ-SSSL-DOX(3'), 2-hydroxyacetyl-SerTyrGln-SerSerSerLeu-DOX (3')] (Glycolyl-SYQSSSL-{Doxorubicin(3'-N)})
- EC50 [1]: 50 µM

Compound: COc1cccc2c1C(=O)c1c(O)c3c(c(O)c1C2=O)C[C@@](O)(C(=O)CO)C[C@@H]3O[C@H]1C[C@H](NC(=O)[C@H](CC(C)C)NC(=O)[C@H](CO)NC(=O)[C@H](CCC(N)=O)NC(=O)[C@@H](NC(=O)[C@H](CO)NC(=O)[C@H](C)NC(=O)[C@H](CCCCNC(=N)N)NC(=O)CO)C2CCCCC2)[C@H](O)[C@H](C)O1 [2-hydroxyacetyl-hRASChgQ-SL-DOX(3'), 2-hydroxyacetyl-hArgAlaSerChgGln-SerLeu-DOX (3')] (Glycolyl-[hArg]AS[Chg]QSL-{Doxorubicin(3'-N)})
- EC50 [1]: > 100 µM

Compound: COc1cccc2c1C(=O)c1c(O)c3c(c(O)c1C2=O)C[C@@](O)(C(=O)CO)C[C@@H]3O[C@H]1C[C@H](NC(=O)[C@H](CC(C)C)NC(=O)[C@H](CO)NC(=O)[C@H](CCC(N)=O)NC(=O)[C@H](Cc2ccc(O)cc2)NC(=O)[C@H](CO)NC(=O)[C@H](CO)NC(=O)[C@H](CCCCNC(=N)N)NC(=O)CO)[C@H](O)[C@H](C)O1 [2-hydroxyacetyl-hRSSYQ-SL-DOX(3'), 2-hydroxyacetyl-hArgSerSerTyrGln-SerLeu-DOX (3')] (Glycolyl-[hArg]SSYQSL-{Doxorubicin(3'-N)})
- EC50 [1]: > 100 µM

Compound: CCCC[C@H](NC(=O)[C@H](CO)NC(=O)[C@H](CCC(N)=O)NC(=O)[C@H](Cc1ccc(O)cc1)NC(=O)[C@H](CO)NC(=O)[C@H](CO)NC(=O)[C@H](CCCCNC(=N)N)NC(=O)CO)C(=O)N[C@H]1C[C@H](O[C@H]2C[C@](O)(C(=O)CO)Cc3c(O)c4c(c(O)c32)C(=O)c2c(OC)cccc2C4=O)O[C@@H](C)[C@H]1O [2-hydroxyacetyl-hRSSYQ-SNle-DOX(3'), 2-hydroxyacetyl-hArgSerSerTyrGln-SerNle-DOX (3')] (Glycolyl-[hArg]SSYQS[Nle]-{Doxorubicin(3'-N)})
- Time to 50% Substrate Cleavage by York PSA (Min), value marked * ([2]; Table 3, alternative PSA digestion buffer 12 mM Tris pH8.0, 25 mM NaCl, 0.5 mM CaCl2): 60 min

Compound: COc1cccc2c1C(=O)c1c(O)c3c(c(O)c1C2=O)C[C@@](O)(C(=O)CO)C[C@@H]3O[C@H]1C[C@H](NC(=O)[C@H](CC(C)C)NC(=O)[C@H](CO)NC(=O)[C@H](CCC(N)=O)NC(=O)[C@@H](NC(=O)[C@H](CCCCNC(=N)N)NC(=O)[C@H](O)[C@@H](O)CO)C2CCCCC2)[C@H](O)[C@H](C)O1 [(2R,3S) 2,3,4-trihydroxybutanoyl-hArgChgGln-SerLeu-DOX (3')] (X4-[hArg][Chg]QSL-{Doxorubicin(3'-N)})
- Substrate cleavage by York PSA at 4 HOUR [2]: 0%

Compound: COc1cccc2c1C(=O)c1c(O)c3c(c(O)c1C2=O)C[C@@](O)(C(=O)CO)C[C@@H]3O[C@H]1C[C@H](NC(=O)[C@H](CC(C)C)NC(=O)[C@H](CO)NC(=O)[C@H](CCC(N)=O)NC(=O)[C@@H](NC(=O)[C@H](CO)NC(=O)[C@H](CO)NC(=O)[C@H](Cc2cccnc2)NC(=O)[C@H](O)CO)C2CCCCC2)[C@H](O)[C@H](C)O1 [(d)(2,3-dihydroxypropionyl)-3PAL-SerSerChgGln-SerLeu-DOX (3')] ({Glyceroyl(2R)}-[3Pal]SS[Chg]QSL-{Doxorubicin(3'-N)})
- EC50 [1]: > 100 µM

Compound: COCCOCCOCC(=O)N[C@@H](CCCCN)C(=O)N[C@@H](Cc1ccc(O)cc1)C(=O)N[C@@H](CCC(N)=O)C(=O)N[C@@H](CO)C(=O)N[C@@H](CO)C(=O)N[C@@H](CO)C(=O)N[C@@H](CC(C)C)C(=O)N[C@H]1C[C@H](O[C@H]2C[C@](O)(C(=O)CO)Cc3c(O)c4c(c(O)c32)C(=O)c2c(OC)cccc2C4=O)O[C@@H](C)[C@H]1O [PEG(2)-KYQ-SSSL-DOX(3'), PEG(2)-LysTyrGln-SerSerSerLeu-DOX (3')] ({Decanoyl(3,6,9-trioxa)}-KYQSSSL-{Doxorubicin(3'-N)})
- Substrate cleavage by York PSA at 4 HOUR [2]: 20%

Compound: COCCOCCOCC(=O)N[C@@H](CO)C(=O)N[C@@H](CCCCNC(=N)N)C(=O)N[C@@H](Cc1ccc(O)cc1)C(=O)N[C@@H](CCC(N)=O)C(=O)N[C@@H](CO)C(=O)N[C@@H](CC(C)C)C(=O)O [PEG(2)-ShRYQ-SL-acid] ({Decanoyl(3,6,9-trioxa)}-S[hArg]YQSL-OH)
- Time to 50% Substrate Cleavage by York PSA (Min), values marked * ([3]; free psa): 35 min

Compound: COCCOCCOCC(=O)N[C@@H](CCCCNC(=N)N)C(=O)N[C@@H](CO)C(=O)N[C@@H](CO)C(=O)N[C@H](C(=O)N[C@@H](CCC(N)=O)C(=O)N[C@@H](CO)C(=O)N[C@@H](CC(C)C)C(=O)O)C1CCCCC1 [PEG(2)-hRSSChgQ-SL-acid] ({Decanoyl(3,6,9-trioxa)}-[hArg]SS[Chg]QSL-OH)
- Time to 50% Substrate Cleavage by York PSA (Min), values marked * ([3]; free psa): 40 min

Compound: COCCOCCOCC(=O)N[C@@H](CO)C(=O)N[C@@H](CO)C(=O)N[C@@H](CO)C(=O)N[C@H](C(=O)N[C@@H](CCC(N)=O)C(=O)N[C@@H](CO)C(=O)N[C@@H](CC(C)C)C(=O)O)C1CCCCC1 [PEG(2)SSSChgQ-SL-acid] ({Decanoyl(3,6,9-trioxa)}-SSS[Chg]QSL-OH)
- Time to 50% Substrate Cleavage by York PSA ([3]; free psa, pH 8): 150 min

Compound: COCCOCCOCCOCCOCCOCCOCC(=O)N[C@@H](C)C(=O)N[C@@H](CO)C(=O)N[C@H](C(=O)N[C@@H](CCC(N)=O)C(=O)N[C@@H](CO)C(=O)N[C@@H](CC(C)C)C(=O)N[C@H]1C[C@H](O[C@H]2C[C@](O)(C(=O)CO)Cc3c(O)c4c(c(O)c32)C(=O)c2c(OC)cccc2C4=O)O[C@@H](C)[C@H]1O)C1CCCCC1 [PEG(6)-ASChgQ-SL-DOX(3'), PEG(6)-AlaSerChgGln-SerLeu-DOX (3')] (X1-AS[Chg]QSL-{Doxorubicin(3'-N)})
- EC50 [1]: 100 µM

Compound: COCCOCCOCCOCCOCCOCCOCCOCCOCCOCCOCCOCCOCCOCCOCC(=O)N[C@@H](CO)C(=O)N[C@@H](CCCCNC(=N)N)C(=O)N[C@@H](Cc1ccc(O)cc1)C(=O)N[C@@H](CCC(N)=O)C(=O)N[C@@H](CO)C(=O)N[C@@H](CC(C)C)C(=O)O [PEG(14)ShRYQ-SL-acid] (X6-S[hArg]YQSL-OH)
- Time to 50% Substrate Cleavage by York PSA ([3]; free psa, pH 8): 40 min

Compound: COCCOCCOCCOCCOCCOCCOCCOCCOCCOCCOCCOCCOCCOCCOCCOCC(=O)N[C@@H](CO)C(=O)N[C@@H](CCCCNC(=N)N)C(=O)N[C@@H](Cc1ccc(O)cc1)C(=O)N[C@@H](CCC(N)=O)C(=O)N[C@@H](CO)C(=O)N[C@@H](CC(C)C)C(=O)O [PEG(15)-ShRYQ-SL-acid] (X5-S[hArg]YQSL-OH)
- Time to 50% Substrate Cleavage by York PSA ([3]; free psa, pH 8): 40 min

Compound: COCCOCCOCCOCCOCCOCCOCCOCCOCCOCCOCCOCCOCCOCCOCCOCCOCC(=O)N[C@@H](CO)C(=O)N[C@@H](CCCCNC(=N)N)C(=O)N[C@@H](Cc1ccc(O)cc1)C(=O)N[C@@H](CCC(N)=O)C(=O)N[C@@H](CO)C(=O)N[C@@H](CC(C)C)C(=O)O [PEG(16)-ShRYQ-SL-acid] (X2-S[hArg]YQSL-OH)
- Time to 50% Substrate Cleavage by York PSA ([3]; free psa, pH 8): 40 min

Compound: COCCOCCOCCOCCOCCOCCOCCOCCOCCOCCOCCOCCOCCOCCOCCOCCOCCOCC(=O)N[C@@H](CO)C(=O)N[C@@H](CCCCNC(=N)N)C(=O)N[C@@H](Cc1ccc(O)cc1)C(=O)N[C@@H](CCC(N)=O)C(=O)N[C@@H](CO)C(=O)N[C@@H](CC(C)C)C(=O)O [PEG(17)-ShRYQ-SL-acid]
- Time to 50% Substrate Cleavage by York PSA [3, 4]: 55 min

Compound: COCCOCCOCCOCCOCCOCCOCCOCCOCCOCCOCCOCCOCCOCCOCCOCCOCCOCCOCC(=O)N[C@@H](CO)C(=O)N[C@@H](CCCCNC(=N)N)C(=O)N[C@@H](Cc1ccc(O)cc1)C(=O)N[C@@H](CCC(N)=O)C(=O)N[C@@H](CO)C(=O)N[C@@H](CC(C)C)C(=O)O [PEG(18)ShRYQ-SL-acid]
- Time to 50% Substrate Cleavage by York PSA ([3]; free psa, pH 8): 40 min

Compound: COCCOCCOCCOCCOCCOCCOCCOCCOCCOCCOCCOCCOCCOCCOCCOCCOCCOCCOCCOCC(=O)N[C@@H](CO)C(=O)N[C@@H](CCCCNC(=N)N)C(=O)N[C@@H](Cc1ccc(O)cc1)C(=O)N[C@@H](CCC(N)=O)C(=O)N[C@@H](CO)C(=O)N[C@@H](CC(C)C)C(=O)O [PEG(19)ShRYQ-SL-acid]
- Time to 50% Substrate Cleavage by York PSA ([3]; free psa, pH 8): 60 min

Compound: CC(C)C[C@H](NC(=O)[C@H](CO)NC(=O)[C@H](CCC(N)=O)NC(=O)[C@@H](NC(=O)[C@H](CCCCNC(=N)N)NC(=O)[C@@H](N)CO)C1CCCCC1)C(=O)O [ShRChgQ-SL -acid] (H-S[hArg][Chg]QSL-OH)
- Substrate cleavage by York PSA at 4 HOUR ([3]; Table 2, oligopeptides, 4 hours): 8%

Compound: PEG(4)-β-PAL-SSChgQ-SL-acid
- Time to 50% Substrate Cleavage by York PSA [3, 4]: 60 min
